{"source": "patent EP4813993A1", "about": "“COMPOUND, PREPARATION METHOD THEREFOR, AND USE THEREOF” (Sichuan Kelun Pharmaceutical Research Institute Co., Ltd., priority 2023, dated 2025)", "key": {"[1]": {"tested_on": "CFA-induced rat inflammatory pain model", "experiment": "CFA-induced rat inflammatory pain model, Von Frey test", "assay_type": "in vivo, SD rats", "description": "Experimental Example 9: Pharmacodynamic effect study of compounds in CFA-induced rat inflammatory pain model Experimental animals: SD rats, male, 180-220 g.\nCompound preparation: 5% (final preparation volume) of DMSO was added to dissolve the test compound, and then 10% (final preparation volume) of Cremophor EL and 85% Saline were sequentially added; an appropriate amount of Celecoxib was weighed, 5% (final preparation volume) of DMSO was added to dissolve the test compound, and then 5% (final preparation volume) of HS-15 and 90% Saline were sequentially added.\nSD rats were anesthetized with isoflurane. The right hind paw was disinfected, a needle was inserted subcutaneously at the posterior plantar aspect, and 50 µL of complete Freund's adjuvant (CFA, 1 mg/mL) was administered via subcutaneous injection at the midplantar region, with the needle withdrawn slowly while rotating to prevent leakage. After modeling, local redness and swelling of the soles of the feet, difficulty in walking, and lifting of the affected feet were observed.\n(§1) 2. Administration and test\n(§2) The Von Frey test was performed once before the surgery. On the second day after animal modeling, animals meeting the baseline requirements were selected for enrollment. The animals were randomly divided into 6 groups based on the 50% PWT values, with 10 animals per group. Administration was performed under a double-blind test protocol. The 50% PWT of the animals was measured separately before administration (baseline) and at 0.5 h, 2 h, and 8 h after administration. The model control group was given normal saline, while the compound groups were given the compounds according to the administration doses in the table below."}, "[2]": {"experiment": "Pharmacokinetic study in ICR mice", "assay_type": "in vivo", "settings": "male, mouse, plasma"}, "[3]": {"tested_on": "incision pain model", "experiment": "Incision pain model in ICR mice, Von Frey test", "assay_type": "in vivo", "settings": "Mean + SEM, n = 10; for PWT 50% value (g) Post-surgery, Preadministration: baseline before administration; for PWT 50% value (g) Pre-surgery: baseline before surgery; for PWT 50% value (g) 0.5 h: 0.5 h after administration; for PWT 50% value (g) 2 h: 2 h after administration; for PWT 50% value (g) 4 h: 4 h after administration", "description": "Experimental Example 6: Pharmacodynamic effect study of compounds in incision pain model in ICR mice Experimental animals: ICR mice, male, 28-35 g.\nCompound preparation: 5% (final preparation volume) of DMSO was added to dissolve the test compound, and then 10% (final preparation volume) of Cremophor EL and 85% Saline were sequentially added.\nA plantar incision pain model was established in mice via surgery before the administration and test. Mice were placed in an anesthesia induction chamber and given 3%-4% isoflurane for anesthesia induction. After the anesthesia induction, a breathing mask was applied, and the isoflurane concentration was adjusted to 1%-2% to prevent the mice from suffering pain during the surgery. Each mouse was placed in a supine position, and the surgical site was disinfected with alcohol and iodophor. Under sterile conditions, a 0.5 cm longitudinal incision was made on the left hind paw surface, 0.2 cm away from the heel, extending toward the toes. The skin and fascia were incised; the plantar muscle was separated, slightly lifted, and longitudinally incised. The skin was then sutured with 5-0 sutures and disinfected.\nas §1\nas §2, with “modeling, the test was repeated, and” for “modeling,”, “grouped” for “divided into 6 groups”, “4” for “8”, “administration, and a single dose was administered.” for “administration.”"}, "[4]": {"tested_on": "incision pain model", "experiment": "Incision pain model in ICR mice, Von Frey test", "assay_type": "in vivo", "settings": "50 mg/kg single dose, Mean + SEM, n = 10"}}}
{"smiles": "COc1c(C2CC(C)(C(F)(F)F)SC2C(=O)Nc2ccnc(C(N)=O)c2)ccc(F)c1F", "note": "(single isomer, unassigned) [Compound 139-A, 4-(3-(3,4-difluoro-2-methoxyphenyl)-5-methyl-5-(trifluoromethyl)tetrahydrothiophene-2-carboxamido)picolinamide]", "values": [{"measurement": "analgesic activity compared with the positive control Celecoxib", "setting": "[1]; CFA-induced rat inflammatory pain model", "value": "superior to the positive control Celecoxib"}, {"measurement": "PWT 50% value (g) Post-surgery, Preadministration", "setting": "[1]; SD rats CFA, 125 mg/kg group, baseline before administration, Mean + SEM, n = 10", "value": "3.1 ± 1.12", "unit": "g"}, {"measurement": "PWT 50% value (g) Pre-surgery", "setting": "[1]; SD rats CFA, 125 mg/kg group, baseline before modeling, Mean + SEM, n = 10", "value": "12.61 ± 3.5", "unit": "g"}, {"measurement": "PWT 50% value (g) Time 0.5 h", "setting": "[1]; SD rats CFA, 125 mg/kg, 0.5 h after administration, Mean + SEM, n = 10", "value": "6.78 ± 5.47", "unit": "g"}, {"measurement": "PWT 50% value (g) Time 2 h", "setting": "[1]; SD rats CFA, 125 mg/kg, 2 h after administration, Mean + SEM, n = 10", "value": "6.54 ± 3.06", "unit": "g"}, {"measurement": "PWT 50% value (g) Time 8 h", "setting": "[1]; SD rats CFA, 125 mg/kg, 8 h after administration, Mean + SEM, n = 10", "value": "3.6 ± 1.5", "unit": "g"}, {"measurement": "PWT 50% value (g) AUC0-8h", "setting": "[1]; SD rats CFA, 125 mg/kg, Mean + SEM, n = 10", "value": "40.83 ± 12.03", "unit": "g"}, {"measurement": "AUC(0-inf)", "setting": "[2]; Oral administration (p.o.), 20 mg/kg", "value": 24800, "unit": "ng·h/mL"}, {"measurement": "AUC(0-inf)", "setting": "[2]; iv, Injection (i.v.), 2 mg/kg", "value": 3080, "unit": "ng·h/mL"}, {"measurement": "PWT 50% value (g) Post-surgery, Preadministration", "setting": "[3]; 50 mg/kg group", "value": "0.22 ± 0.03", "unit": "g"}, {"measurement": "PWT 50% value (g) Pre-surgery", "setting": "[3]; 50 mg/kg group", "value": "1.39 ± 0.31", "unit": "g"}, {"measurement": "PWT 50% value (g) 0.5 h", "setting": "[3]; 50 mg/kg single dose", "value": "0.74 ± 0.3", "unit": "g"}, {"measurement": "PWT 50% value (g) 2 h", "setting": "[3]; 50 mg/kg single dose", "value": "1.05 ± 0.38", "unit": "g"}, {"measurement": "PWT 50% value (g) 4 h", "setting": "[3]; 50 mg/kg single dose", "value": "0.74 ± 0.29", "unit": "g"}, {"measurement": "PWT 50% value (g) Post-surgery, Preadministration", "setting": "[3]; 125 mg/kg group", "value": "0.22 ± 0.02", "unit": "g"}, {"measurement": "PWT 50% value (g) Pre-surgery", "setting": "[3]; 125 mg/kg group", "value": "1.25 ± 0.31", "unit": "g"}, {"measurement": "PWT 50% value (g) 0.5 h", "setting": "[3]; 125 mg/kg single dose", "value": "0.82 ± 0.33", "unit": "g"}, {"measurement": "PWT 50% value (g) 2 h", "setting": "[3]; 125 mg/kg single dose", "value": "1.09 ± 0.32", "unit": "g"}, {"measurement": "PWT 50% value (g) 4 h", "setting": "[3]; 125 mg/kg single dose", "value": "0.87 ± 0.16", "unit": "g"}, {"measurement": "PWT 50% value (g) AUC0-8h", "setting": "[3]; 125 mg/kg single dose", "value": "6.08 ± 1.2", "unit": "g·h"}, {"measurement": "PWT 50% value (g) AUC0-8h", "setting": "[4]", "value": "5.45 ± 1.62", "unit": "g·h"}]}
